# Columns and labels:
# Type in all cases: in vivo, Arabidopsis
# NI16 RNA [1] = assay: Quantitative Northern, NI16 level in wild type and NI16-overexpressing lines after BTH; conditions: for NI16 level (relative): 24 hours after induction
# Description: (§1) A NI16 construct is made in binary vector pBAR35S (obtained from Jeff Dangi, UNC-Chapel Hill). First a full-length clone is obtained by cloning the 5′ sequence of NI16 (obtained by 5′ RACE and cloned into AT vector pCR2.1) into the EcoRI site of the original pJG4-5 clone as an EcoRI fragment. Then the entire coding region of NI16 is PCR cloned back into pCR2.1 with the primers 16F and 16 R (Table 1). The resulting plasmid is cut with XbaI and SacI for cloning into pBAR35S. The clone is transformed into Agrobacterium strain GV3101 (Koncz and Schell, 1986). WS—O and nim1-4 plants are transformed using standard procedures and the resulting T1 seed is selected by spraying with a 60 μg/ml solution of BASTA every two days for 6 days after germination. BASTA resistant plants are analyzed for levels of NI16 and PR-1 RNA after 4 weeks.
# (§2) 4 WS—O plants expressing NI16 above wild type levels are recovered. All have elevated levels of PR-1 RNA as detected on Northern blots. All 4 plants are taken to the T3 generations. Quantitative Northerns are done on two of the T3 lines, one with a relatively low level of N116 RNA (1-1B) and one with a high level of N116 RNA (2-1B). Northerns are hybridized with NI16 and PR-1 probes. Measurements are taken with a Molecular Dynamics Phosphoimager, which directly measures counts per unit area. The amount of PR-1 RNA correlates directly with the amount of NI16 RNA, i.e., the highest expressers of NI16 have the highest levels of PR-1. (Table 2). […] PR-1 levels are induced at the same rate in the two NI16 lines as the WS—O control, however steady state PR-1 levels are higher, especially at 0 and 10 μm BTH. NI16 may therefore be necessary for the SAR response, and overexpression of NI16 may activate a subset of the response. PR-1 is also elevated in nahG, nim1-1 and nim1-4 plants overexpressing NI16. Out of 34 nim1-1 T1 plants containing the 35S-NI16 construct, 22 have elevated levels of PR-1. Similarly, 18/26 nim1-4 and 20/27 nahG primary transformants have elevated PR-1 levels. In each case, high NI16 expression is correlated with high PR-1 levels. This is significant because nim1 and nahG plants are normally deficient in their ability to induce PR1 in response to pathogens. Furthermore, this provides evidence that overexpression of NI16 can at least partially compensate for the absence of SA and a functional NIM protein in plants.
# NI16 gene = NI16 gene induction in NIM1-overexpressing plants treated with BTH
# NI16 transcript = NI16 transcript accumulation in nim1-4 plants after BTH treatment; conditions: after 2 and 24 hours of BTH treatment
# NI16 RNA [2] = assay: Induction of NI16 mRNA by SA and BTH spray, RNA blot hybridization; conditions: WS-O plants sprayed with 5 mM SA or 300 μm BTH
# Method: RNA is prepared from 4 week old Wassilewskija (WS—O) plants, that are either sprayed with water, a 5 mM solution of sodium salicylate (SA), or a 300 μm solution of benzo-(1,2,3)-thiadiazole-7-carbothioic acid S-methyl ester (BTH). […] RNA extractions and RNA blot hybridizations are performed as described previously by Ausubel et al. (1987). NI16 RNA is induced 5–10 fold within 15 minutes of SA or BTH induction and reaches a peak of approximately 50 fold induction within 2 hours of SA treatment and 25 fold induction with BTH treatment.
# PR-1 RNA = assay: Quantitative Northern, PR-1 level in wild type and NI16-overexpressing lines after BTH; conditions: 24 hours after induction
# Description: as §1, §2
# [3] = NI16-overexpressing line 1-1B, 10 μm BTH
# [4] = NI16-overexpressing line 1-1B, 100 μm BTH
# [5] = NI16-overexpressing line 2-1B, 10 μm BTH
# [6] = NI16-overexpressing line 2-1B, 100 μm BTH
smiles,measurement,setting,value
"CSC(=O)c1cccc2nnsc12 [BTH, benzo(1,2,3)thiadiazole-7-carbothioic acid S-methyl ester]",NI16 level (relative),NI16 RNA [1]; [3],1400
same,NI16 level (relative),NI16 RNA [1]; [4],1480
same,NI16 level (relative),NI16 RNA [1]; [5],14000
same,NI16 level (relative),NI16 RNA [1]; [6],12000
same,effect on amount of NI16 RNA,"NI16 RNA [1]; NI16 transgenic lines, BTH rates lower than normally used for protection to Peronospora parasitica",do not significantly increase the amount of NI16 RNA
same,NI16 level (relative),"NI16 RNA [1]; genotype WS, 10 μm BTH",10
same,NI16 level (relative),"NI16 RNA [1]; genotype WS, 100 μm BTH",90
same,NI16 gene induction,NI16 gene,induced
same,NI16 transcript accumulation,NI16 transcript,unable to accumulate NI16 transcript
same,time NI16 transcript remains highly induced after treatment,NI16 RNA [2],at least 48 hours
same,NI16 RNA peak induction,"NI16 RNA [2]; peak, within 2 hours of SA treatment",~25 fold
same,PR-1 level (relative),PR-1 RNA; [3],30
same,PR-1 level (relative),PR-1 RNA; [4],120
same,PR-1 level (relative),PR-1 RNA; [5],70
same,PR-1 level (relative),PR-1 RNA; [6],140
same,PR-1 level (relative),"PR-1 RNA; genotype WS, 10 μm BTH",30
same,PR-1 level (relative),"PR-1 RNA; genotype WS, 100 μm BTH",90
